Consider 16 compounds from US9499493B2, “2,4-pyrimidinediamine compounds and their uses” (Rigel Pharmaceuticals, Inc., priority 2002, dated 2016).

The structures appear in SMILES notation. Some results are limits rather than exact numbers.

Common to all, as to assay type: cell-based
In assay [1] the test system is cultured human mast cells (CHMC). In words: CHMC low cell density ionomycin activation: tryptase assay.
Another assay deals with Jurkat cells. In words: Jurkat (T-cell) toxicity, light scatter. The following applies: 18-24 hr incubation; read-out: Toxicity Jurkat Light Scat. As to the method:
Dilute Jurkat cells to 2×10^5 cells/ml in complete RPMI (10% heat-inactivated fetal bovine serum) media and incubate at 37° C., 5% CO2 for 18 hours. Add 65 ul cells at 7.7×10^5 cells/ml to a 96-well V-bottom plate (TC-treated, Costar) containing 65 ul 2× compound (final vehicle concentration is 0.5% DMSO, 1.5% MeOH). Mix, incubate plates for 18-24 hr at 37° C., 5% CO2. Toxicity was assessed by flow cytometric analysis of cellular light scatter

Another assay has as its system B-cell line BJAB. In words: BJAB (B-cell) toxicity, light scatter. The following applies: read-out: Toxicity BJAB Light Scat. As to the method: The B-cell line BJAB was cultured in log phase in RPMI1640+10% heat-inactivated fetal bovine serum, 1× L-glutamine, 1× penicillin, 1× […] and 1× beta-mercaptoethanol at 37° C., 5% CO2. First, BJABs were harvested, spun and resuspended in culture medium to a concentration of 7.7×10^5 cells/mL. 65 uL cells were mixed with 65 uL compound, in duplicate and in the presence of 0.1% DMSO in a V-bottomed 96-well tissue culture plate. Cells were incubated with compound at various dilutions at 37° C., 5% CO2. Toxicity was assessed by flow cytometric analysis of cellular light scatter.

Assay [2] has as its system cultured human mast cells (CHMC). In words: CHMC low cell density IgE activation: tryptase assay. Conditions: anti-IgE. Put shortly: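 Cells pelleted, taken up in warm MT, plated at 1000-1500/well, held 1 hr 37° C. Anti-IgE added, 30 min 37° C. Plates spun; supernatant mixed with tryptase substrate, 30 min RT.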
For assay [3] the test system is unchanged. In words: CHMC low cell density IgE activation: LTC4 assay. The following applies: anti-IgE. As to the method:
Pellet CHMC cells (980 rpm, 10 min) and resuspend in pre-warmed MT. Add 65 ul of cells to each 96-well plate. Depending on the degranulation activity for each particular CHMC donor, load 1000-1500 cells/well. Mix four times followed by a 1 hr incubation at 37° C. […] Stimulate cells by adding 25 ul of 6× anti-IgE solution to the appropriate plates. Add 25 ul MT to un-stimulated control wells. Mix twice following addition of the anti-IgE. Incubate at 37° C. for 30 minutes. […] Spin plates at 1000 rpm for 10 min to pellet cells. Transfer 25 ul of supernatant to a 96-well black bottom plate and add 100 ul of freshly diluted tryptase substrate solution to each well. Incubate plates at room temperature for 30 min.
Leukotriene C4 (LTC4) is also quantified using an ELISA kit on appropriately diluted supernatant samples (determined empirically for each donor cell population so that the sample measurement falls within the standard curve) following the supplier's instructions.

For assay [4] the test system is unchanged. In words: CHMC high cell density IgE activation: hexos (hexosaminidase) release. Conditions: anti-IgE activation. The method, then: (§1) Inhibition of degranulation was measured at both low and high cell density by quantifying the release of the granule specific factors tryptase, histamine and hexosaminidase. Inhibition of release and/or synthesis of lipid mediators was assessed by measuring the release of leukotriene LTC4 and inhibition of release and/or synthesis of cytokines was monitored by quantifying TNF-α, IL-6 and IL-13. Tryptase and hexosaminidase were quantified using fluorogenic substrates as described in their respective examples. […] The protocols of the various assays are provided below.
(§2) After sensitizing, cells are counted, pelleted (1000 rpm, 5-10 minutes), and resuspended at 1-2×10^6 cells/ml in MT buffer. Add 100 ul of cell suspension to each well and 100 ul of compound dilutions. The final vehicle concentration is 0.5% DMSO. Incubate at 37° C. (5% CO2) for 1 hour. After 1 hour of compound treatment, stimulate cells with 6× anti-IgE. Mix wells with the cells and allow plates to incubate at 37° C. (5% CO2) for one hour. After 1 hour incubation, pellet cells (10 minutes, 1000 RPM) and collect 200 ul per well of the supernatant, being careful not to disturb pellet. Place the supernatant plate on ice. During the 7-hour step (see next) perform tryptase assay on supernatant that had been diluted 1:500. Resuspend cell pellet in 240 ul of CM media containing 0.5% DMSO and corresponding concentration of compound. Incubate CHMC cells for 7 hours at 37° C. (5% CO2). After incubation, pellet cells (1000 RPM, 10 minutes) and collect 225 ul per well and place in −80° C. until ready to perform ELISAS. ELISAS are performed on appropriately diluted samples (determined empirically for each donor cell population so that the sample measurement falls within the standard curve) following the supplier's instructions.

For assay [5] the test system is unchanged. As to the kind of experiment: CHMC high cell density IgE activation: tryptase. The following applies: anti-IgE activation. The method, then: as §2
The test system is the same in assay [6]. In words: CHMC high cell density IgE activation: histamine. Conditions: anti-IgE activation. The method, then: as §1, §2
Assay [7] shares this test system. As to the kind of experiment: CHMC high cell density IgE activation: LTC4. Conditions: anti-IgE activation. The method, then:
as §1, §2

For assay [8] the test system is unchanged. As to the kind of experiment: CHMC high cell density IgE activation: TNFalpha. The following applies: anti-IgE activation; read-out: CHMC high density TNF-alpha. The method, then:
as §1, §2

Assay [9] shares this test system. In words: CHMC high cell density IgE activation: IL-13. The following applies: anti-IgE activation. The method, then: as §1, §2

For the compound `CCOC(=O)COc1ccc(Nc2ncc(C#N)c(Nc3ccc(OCC(=O)OCC)cc3)n2)cc1` [R925775, N2,N4-Bis[4-(ethoxycarbonylmethyleneoxy)phenyl]-5-cyano-2,4-pyrimidinediamine], the IC50 (in assay [1]; in the assay with Jurkat cells; in the assay with B-cell line BJAB) was above 10000 nM throughout.
Take `CCOC(=O)COc1ccc(Nc2ncc(Br)c(Nc3ccc(OCC(=O)OCC)cc3)n2)cc1` [R925779, N2,N4-Bis[4-(ethoxycarbonylmethyleneoxy)phenyl]-5-bromo-2,4-pyrimidinediamine]: the IC50 in assay [2] was 265 nM; in assay [3] it was 190 nM; in assay [1], above 10000 nM; in the assay with Jurkat cells, above 10000 nM; in the assay with B-cell line BJAB it was above 10000 nM.
As to `COC(=O)COc1ccc(Nc2ncc(F)c(Nc3ccc(OCC(=O)OC)cc3)n2)cc1` [R926240, N2,N4-Bis[(4-methoxycarbonylmethyleneoxy)phenyl]-5-fluoro-2,4-pyrimidinediamine], the IC50 in assay [2] was 381 nM; in [3] it was 145 nM; in assay [1] it was 1700 nM; in the assay with Jurkat cells it was 10000 nM; with B-cell line BJAB it was above 10000 nM.
Consider `CCOC(=O)c1cnc(Nc2ccc(OCC(=O)OC)cc2)nc1Nc1ccc(OCC(=O)OC)cc1` [R926253, N2,N4-Bis(4-methoxycarbonylmethyleneoxyphenyl)-5-ethoxycarbonyl-2,4-pyrimidinediamine], for which the IC50 in assay [2] was 800 nM; in assay [3] it was 675 nM; in the assay with Jurkat cells, above 10000 nM; in the assay with B-cell line BJAB, above 10000 nM.
As to `COC(=O)COc1ccc(Nc2ccnc(Nc3ccc(OCC(=O)OC)cc3)n2)cc1` [R926256, N2,N4-Bis[(4-methoxycarbonylmethyleneoxy)phenyl]-2,4-pyrimidinediamine], the IC50 in [2] is 275 nM; in assay [3] it was 230 nM; in assay [1], 5100 nM; in the assay with Jurkat cells, above 10000 nM; with B-cell line BJAB, above 10000 nM.
Consider `COC(=O)COc1ccc(Nc2ncc(C)c(Nc3ccc(OCC(=O)OC)cc3)n2)cc1` [R926258, N2,N4-Bis(4-methoxycarbonylmethyleneoxyphenyl)-5-methyl-2,4-pyrimidinediamine], for which the IC50 in [2] is 900 nM; in assay [3], 590 nM; in assay [1] it was above 10000 nM; with Jurkat cells, above 10000 nM; in the assay with B-cell line BJAB, above 10000 nM.
As to `CCOC(=O)COc1ccc(Nc2ncc(F)c(Nc3cccc(O)c3)n2)cc1` [R926395, N2-(4-Ethoxycarbonylmethyleneoxyphenyl)-5-fluoro-N4-(3-hydroxyphenyl)-2,4-pyrimidinediamine], the IC50 in assay [2] is 875 nM; in [3], 290 nM; in assay [1], 6400 nM; with Jurkat cells, above 10000 nM; with B-cell line BJAB it was above 10000 nM.
On to `CCOC(=O)COc1ccc(Nc2ncc(Br)c(Nc3cccc(O)c3)n2)cc1` [R926396, 5-Bromo-N2-(4-ethoxycarbonylmethyleneoxyphenyl)-N4-(3-hydroxyphenyl)-2,4-pyrimidinediamine], for which the IC50 in [2] was 700 nM; in [3], 160 nM; in assay [1] it was 2600 nM; in the assay on Jurkat cells, above 10000 nM; in the assay on B-cell line BJAB it was above 10000 nM.
`COC(=O)COc1ccc(Nc2cc(Cl)nc(Nc3ccc(OCC(=O)OC)cc3)n2)cc1` [R926411, N2,N4-Bis(4-methoxycarbonylmethyleneoxyphenyl)-6-chloro-2,4-pyrimidinediamine]: the IC50 is 690 nM in assay [2], 2500 nM in assay [1], 8500 nM in the assay with Jurkat cells and above 10000 nM with B-cell line BJAB.
Regarding `COC(=O)c1cc2cc(Nc3ncc(F)c(Nc4ccc5[nH]c(C(=O)OC)cc5c4)n3)ccc2[nH]1` [R926593], the IC50 is 680 nM in assay [2] (Homo sapiens, Mast cell); 495 nM in assay [3] (Homo sapiens, Mast cell); 8300 nM in [1] (Homo sapiens, Mast cell).
`Oc1cccc(Nc2nc(Nc3ccc(OCCN4CCOCC4)cc3)ncc2F)c1` [R926699, 5-Fluoro-N4-(3-hydroxyphenyl)-N2-[4-[2-(N-morpholino)ethyleneoxy]phenyl]-2,4-pyrimidinediamine]: the IC50 in assay [2] was 760 nM; in [1], above 10000 nM; in assay [4] it was below 1100 nM; in [5], below 1100 nM; in assay [6] it was 1440 nM; in [7], below 1100 nM. The IC50 is below 1100 nM in [8] and 1290 nM in assay [9].
As for `CC(C)Oc1ccc(Nc2nc(Nc3ccc4oc(C(=O)N5CCCC5)cc4c3)ncc2F)cc1` [R926703, 5-Fluoro-N4-(4-isopropoxyphenyl)-N2-[2-(N-pyrrolidino)carbonylbenzofuran-5-yl]-2,4-pyrimidinediamine], the IC50 is 525 nM in assay [2]; above 10000 nM in assay [1]; 1510 nM in [4]; 1950 nM in [5]; above 2000 nM in assay [6]; 724 nM in assay [7]. In assay [8], the IC50 was above 2000 nM.
Take `N#CCOc1ccc(Nc2ncc(F)c(Nc3ccc(OCC#N)cc3)n2)cc1` [R945032, N2,N4-Bis[4-(cyanomethyleneoxy)phenyl]-5-fluoro-2,4-pyrimidinediamine]: the IC50 in assay [2] is 370 nM; in [1], above 10000 nM; in [4], 357 nM; in assay [5], 458 nM; in assay [6] it was 439 nM; in assay [7] it was 92.9 nM. Also, the IC50 in assay [8] was 1080 nM; in assay [9] it was 291 nM.
`Fc1cnc(Nc2ccc(OCc3nnn[nH]3)cc2)nc1Nc1ccc(OCc2nnn[nH]2)cc1` [R945033, N2,N4-Bis[4-(1H-1,2,3,4-tetrazol-5-yl)methyleneoxyphenyl]-5-fluoro-2,4-pyrimidinediamine]: the IC50 in assay [2] is above 10000 nM; in assay [1], above 10000 nM; in assay [4] it was 8150 nM; in assay [5], 8870 nM; in [6], above 10000 nM; in assay [7], 5980 nM.
As for `N#CCOc1ccc(Nc2nc(Nc3cccc(O)c3)ncc2F)cc1` [R945071, N4-[4-(Cyanomethyleneoxy)phenyl]-5-fluoro-N2-(3-hydroxyphenyl)-2,4-pyrimidinediamine], the IC50 in assay [4], in [5], in assay [6], in assay [7], in assay [8] and in [9] was below 1100 nM in each case.
For the compound `Cc1cc(Nc2nc(Nc3cccc(OCC(=O)N4CCNCC4)c3)ncc2F)cc(C)c1O` [R945140, N4-(3,5-Dimethyl-4-hydroxyphenyl)-5-fluoro-N2-[3-(N-piperazino)carbonylmethyleneoxyphenyl]-2,4-pyrimidinediamine], the IC50 in assay [2] is 573 nM; in assay [1] it was above 10000 nM; in [4] it was 994 nM; in assay [5] it was 1110 nM; in assay [6], 1550 nM; in assay [8] it was 1710 nM. The IC50 in assay [9] is above 10000 nM.
